# Read-outs that look alike come from different tables or passages of the source.
# Legend:
# IgG = assay: Preliminary studies of binding with IgG
# platelet proteins = assay: Preliminary studies of binding with platelet proteins
# [1] = Tissue distribution of radioactivity after intravenous administration in rats; assay type: in vivo, female Fischer 344 rats (printed "femal Fischer 344 rats"); settings: for tissue uptake at 5 min / tissue uptake at 0.5 h / tissue uptake at 1 h: rat, iv; for tissue uptake at 5 min: 5 min after i.v. injection; for tissue uptake at 0.5 h: 30 min after i.v. injection; for tissue uptake at 1 h: 60 min after i.v. injection; for binding with the blood, tissue distribution (in words) / thyroid uptake / thyroid levels of radioactivity (in words): rats; for thyroid uptake / thyroid levels of radioactivity (in words): indicative of in vivo stability of radiolabel toward deiodination
# Description: 4-[^125 I]iodoaniline (7.4 mCi sp. act. 700 mCi/mmol) prepared following structure described in Step 1 of Example 1 was coupled with maleic anhydride (9.5 mg) in glacial acetic acid (0.15 ml) at room temperature. The radioiodinated compound, [^125 I]3 isolated by silica gel column chromatography was refluxed with acetic anhydride
# The distribution of radiactivity in tissues of femal Fischer 344 rats
# (§1) after intravenous administration of [^125 I]4.^a
# ^a Animals had body weight range of 121-139 gm. Each animal received
# 3.7 ^o Ci of [^125 I]4 by tail vein injection.
# The distribution of radioactivity in tissues of femal Fischer 344 rats
# as §1
# (75mg) and anhydrous (fused) sodium acetate (12 mg) in benzene (1.0 ml) for 3 h. The product, [^125 I]4 (3.99 mCi, 56 percent radiochemical yield based on [^125 I]3), was isolated by silica gel column chromatography. The radioactive compound [^125 I]4 was identical with an unlabeled sample of 4.
# albumin = assay: Preliminary studies of binding with albumin
# red blood cells = assay: Blood fractionation (plasma, red and white blood cells) studies; assay type: in vivo, rat; settings: rats injected with [^125 I]4
# Excerpt: Blood fractionation (plasma, red and white blood cells) studies indicated 88.9% of the blood activity to be associated with red blood cells.
# [2] = Binding to human γ-globulin (activity remaining in aqueous portion after ether extraction; TLC); settings: gamma-globulin in pbs; human γ-globulin 6.7 mg/ml in PBS, 30 min at 37° C., after ether extraction; read-out: activity remaining in the aqueous portion (bound with protein), γ-globulin (converted)
# Description: (§2) Samples of bovine albumin (45 mg/ml, 10 ml) and human γ-globulin (6.7 mg/ml. 10 ml) were prepared in phosphate buffer and 0.15 NaCl solution (PBS). A 10 ml sample of PBS was used as control. [^125 I]-IPM (10 μCi) in 100 λ DMSO was added to each sample and incubated for 30 min at 37° C. The samples were repeatedly extracted with ethyl ether. The unbound activity as [^125 I]-IPM was extracted with ethyl ether. The activity remaining in the aqueous portion was considered to be bound with the proteins.
# human γ-globulin = assay: as above; settings: TLC of aqueous portion, radioactivity with a polar band
# Description: as §2
# bovine albumin = assay: Binding to bovine albumin (activity remaining in aqueous portion after ether extraction; TLC); settings: TLC of aqueous portion, radioactivity with a polar band
# Description: as §2
# [3] = as above; settings: bovine albumin 45 mg/ml in PBS, 30 min at 37° C., after ether extraction; read-out: activity remaining in the aqueous portion (bound with protein), albumin (converted)
# Description: as §2
# [4] = blood, Table 1, blood, read-out: Mean percent injected dose/gm, Blood
# [5] = blood, Table 2, blood, read-out: Mean percent injected dose/gm, Blood
# [6] = heart, Table 1, heart, read-out: Mean percent injected dose/gm, Heart
# [7] = heart, Table 2, heart, read-out: Mean percent injected dose/gm, Heart
# [8] = kidneys, Table 1, kidneys, read-out: Mean percent injected dose/gm, Kidneys
# [9] = kidneys, Table 2, kidneys, read-out: Mean percent injected dose/gm, Kidneys
# [10] = liver, Table 1, liver, read-out: Mean percent injected dose/gm, Liver
# [11] = liver, Table 2, liver, read-out: Mean percent injected dose/gm, Liver
# [12] = lungs, Table 1, lungs, read-out: Mean percent injected dose/gm, Lungs
# [13] = lungs, Table 2, lungs, read-out: Mean percent injected dose/gm, Lungs
# [14] = thyroid, Table 1, thyroid, read-out: Mean percent injected dose/gm, Thyroid
# [15] = thyroid, Table 2, thyroid, read-out: Mean percent injected dose/gm, Thyroid
smiles,measurement,setting,value
"O=C1C=CC(=O)N1c1ccc([125I])cc1 [[^125 I]4, N-(p-[^125 I]iodophenyl)maleimide]",binding with IgG (in words),IgG,appears to bind
same,binding with platelet proteins (in words),platelet proteins,appears to bind
same,tissue uptake at 5 min,[1]; [4],8.84 %ID/g
same,tissue uptake at 0.5 h,[1]; [4],8.44 %ID/g
same,tissue uptake at 1 h,[1]; [4],7.56 %ID/g
same,tissue uptake at 5 min,[1]; [5],57.6 %ID/g
same,tissue uptake at 0.5 h,[1]; [5],54.1 %ID/g
same,tissue uptake at 1 h,[1]; [5],48.6 %ID/g
same,tissue uptake at 5 min,[1]; [6],1.45 %ID/g
same,tissue uptake at 0.5 h,[1]; [6],1.81 %ID/g
same,tissue uptake at 1 h,[1]; [6],1.74 %ID/g
same,tissue uptake at 5 min,[1]; [7],0.61 %ID/g
same,tissue uptake at 0.5 h,[1]; [7],0.79 %ID/g
same,tissue uptake at 1 h,[1]; [7],0.74 %ID/g
same,tissue uptake at 5 min,[1]; [8],2.15 %ID/g
same,tissue uptake at 0.5 h,[1]; [8],2.12 %ID/g
same,tissue uptake at 1 h,[1]; [8],2.07 %ID/g
same,tissue uptake at 5 min,[1]; [9],2.17 %ID/g
same,tissue uptake at 0.5 h,[1]; [9],2.18 %ID/g
same,tissue uptake at 1 h,[1]; [9],2.21 %ID/g
same,tissue uptake at 5 min,[1]; [10],1.9 %ID/g
same,tissue uptake at 0.5 h,[1]; [10],1.73 %ID/g
same,tissue uptake at 1 h,[1]; [10],1.5 %ID/g
same,tissue uptake at 5 min,[1]; [11],10.2 %ID/g
same,tissue uptake at 0.5 h,[1]; [11],7.85 %ID/g
same,tissue uptake at 1 h,[1]; [11],7.05 %ID/g
same,tissue uptake at 5 min,[1]; [12],2.04 %ID/g
same,tissue uptake at 0.5 h,[1]; [12],2.52 %ID/g
same,tissue uptake at 1 h,[1]; [12],2.31 %ID/g
same,tissue uptake at 5 min,[1]; [13],1.76 %ID/g
same,tissue uptake at 0.5 h,[1]; [13],1.89 %ID/g
same,tissue uptake at 1 h,[1]; [13],1.74 %ID/g
same,tissue uptake at 5 min,[1]; [14],13.7 %ID/g
same,tissue uptake at 0.5 h,[1]; [14],21.7 %ID/g
same,tissue uptake at 1 h,[1]; [14],20.5 %ID/g
same,tissue uptake at 5 min,[1]; [15],0.13 %ID/g
same,tissue uptake at 0.5 h,[1]; [15],0.2 %ID/g
same,tissue uptake at 1 h,[1]; [15],0.19 %ID/g
same,"binding with the blood, tissue distribution (in words)",[1],high levels of radioactivity were associated with the blood
same,thyroid uptake / thyroid levels of radioactivity (in words),[1]; listed as IPM,consistently low
same,thyroid uptake / thyroid levels of radioactivity (in words),[1]; listed as maleimide agent,low
same,"binding with the blood, tissue distribution (in words)",[1]; listed as IPM,preferential binding
same,"binding with the blood, tissue distribution (in words)",[1]; listed as maleimide agent,preferential binding with the blood
same,binding with albumin (in words),albumin,appears to bind
same,blood activity associated with red blood cells,red blood cells,88.9%
same,fraction unbound at 0.5 h,[2],~0.6
same,binding with γ-globulin by TLC (in words),human γ-globulin,significant binding
same,binding with albumin by TLC (in words),bovine albumin,significant binding
same,fraction unbound at 0.5 h,[3],~0.4
